From paper PMC11279465, “Dual Inhibitors of P-gp and Carbonic Anhydrase XII (hCA XII) against Tumor Multidrug Resistance with Piperazine Scaffold” (Molecules, 2024)

Key:
A549 cells = assay: Intrinsic cytotoxicity (MTT); type: cell-based, human; settings: compound alone at 1 µM; parental A549; 48 h
Description: (§1) All compounds were preliminarily studied to evaluate their intrinsic cytotoxicity at different concentrations (from 10 nM to 50 µM) in the parental HT29 and A549 and the resistant HT29/DOX and A549/DOX cells using the MTT assay.
(§2) The intrinsic toxicity of the studied compounds was determined by an MTT assay. K562 and K562/DOX were exposed for 72 h with compounds at 1 and 3 µM concentrations while HT29, A549, HT29/DOX and A549/DOX cells were incubated for 48 h with compounds used at different concentrations (from 10 nM to 50 µM). The percentage of growth compared to the untreated control was transformed into histograms with the GraphPad Prism 5 program.

HT29 cells = assay: Intrinsic cytotoxicity (MTT); type: cell-based, human; settings: compound alone at 1 µM; parental HT29; 48 h
Description: as §1, §2

hCA I = target: T1, hCA I (Homo sapiens, UniProt P00915); assay: CA inhibition, stopped-flow CO2 hydrase assay; type: biochemical; settings: stopped-flow technique; incubation time 6 h; mean of 3 assays
T1 construct: made in house
How it was run: (§3)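 Stopped-flow CO2 hydration used saturated CO2 solutions at 25 °C as substrate. Enzyme and inhibitor (10 μM stocks in DMSO-water, diluted down to 0.01 nM) were preincubated for 6 h at room temperature.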

hCA IX = target: T2, hCA IX (Homo sapiens, UniProt Q16790); assay: CA inhibition, stopped-flow CO2 hydrase assay; type: biochemical; settings: stopped-flow technique; incubation time 6 h; mean of 3 assays
T2 construct: made in house
How it was run: as §3

hCA XII = target: T3, hCA XII (Homo sapiens, UniProt O43570); assay: CA inhibition, stopped-flow CO2 hydrase assay; type: biochemical; settings: stopped-flow technique; incubation time 6 h; mean of 3 assays
T3 construct: made in house
How it was run: as §3

hCA II = target: T4, hCA II (Homo sapiens, UniProt P00918); assay: CA inhibition, stopped-flow CO2 hydrase assay; type: biochemical; settings: stopped-flow technique; incubation time 6 h; mean of 3 assays
T4 construct: made in house
How it was run: as §3

P-gp [1] = target: T5, P-gp (Homo sapiens, UniProt P08183); assay: P-gp ATPase activity (HT29/DOX cells); type: biochemical; design: endogenous in cells; host or cells: HT29/DOX (A27) and A549/DOX (A28); settings: 1 µM, compared with HT29
Description: (§4) Plasma-membrane vesicles enriched with P-gp were prepared by sequential centrifugation as detailed previously. The ATPase activity of immunopurified P-gp was evaluated spectrophotometrically by measuring the absorbance of the phosphate hydrolyzed from ATP at 620 nm, using a Synergy HT Multi-Detection Microplate Reader (Bio-Tek Instruments). The absorbance was converted into μmol hydrolyzed phosphate/min/mg proteins, according to the titration curve previously prepared.

HT29/DOX cells [2] = assay: Membrane fluidity; type: cell-based, human; settings: 1 µM
Description: (§5) Membrane fluidity was measured fluorometrically using the Membrane Fluidity Kit, Abcam, according to the manufacturer’s instructions.

A549/DOX cells [3] = assay: Membrane fluidity; type: cell-based, human; settings: 1 µM
Description: as §5

K562/DOX cells = assay: Doxorubicin cytotoxicity enhancement assay (MTT); type: cell-based, human; settings: 72 h
How it was run: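 K562/DOX cells exposed 72 h to varying doxorubicin concentrations plus 1 or 3 µM test compound. Viability by MTT absorbance, expressed as percentage of untreated control cells.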

HT29/DOX cells [4] = assay: TBARS (lipid peroxidation, 4-HNE kit); type: cell-based, human; settings: 1 µM
Description: (§6) Selected compounds have been tested for their cytotoxic activity at 24 h on HT29/DOX and A549/DOX cells and on the parental HT29 and A549 cells by MTT assay. To evaluate the mechanisms involved in CS, reactive oxygen species (ROS) were measured using the fluorescent probe 5-(and-6)-chloromethyl-2′,7′-dichlorodihydro-fluorescein diacetate-acetoxymethyl ester (DCFDA-AM), as previously reported. The results were expressed as nmol/mg cellular proteins. The amount of TBARS, as an index of lipoperoxidation, was measured with the Lipid Peroxidation (4-HNE) Assay Kit (Abcam, Cambridge, UK) that evaluates the 4-hydroxy-nonenale, one of the TBARS Results were expressed as nmoles/mg mitochondrial protein.

A549/DOX cells [5] = assay: TBARS (lipid peroxidation, 4-HNE kit); type: cell-based, human; settings: 1 µM
Description: as §6

HT29/DOX cells [6] = assay: ROS measurement (DCFDA-AM); type: cell-based, human; settings: 1 µM
Description: as §6

A549/DOX cells [7] = assay: ROS measurement (DCFDA-AM); type: cell-based, human; settings: 1 µM
Description: as §6

HT29/DOX cells [8] = assay: Intrinsic cytotoxicity (MTT); type: cell-based, human; settings: 48 h; for toxicity: compound alone at 1 µM, HT29/DOX; for more cytotoxic in resistant cells than in parental sensitive cells: compound alone, 1 µM, HT29/DOX vs HT29
How it was run: (§7)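 Resistant HT29/DOX and A549/DOX cells exposed for 48 h to compounds from 10 nM to 50 µM; viability measured by MTT. Growth expressed as percentage of untreated control.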

A549/DOX cells [9] = assay: Intrinsic cytotoxicity (MTT); type: cell-based, human; settings: 48 h; for toxicity: compound alone at 1 µM, A549/DOX; for more cytotoxic in resistant cells than in parental sensitive cells: compound alone, 1 µM, A549/DOX vs A549
How it was run: as §7

P-gp [10] = target: T5, P-gp; assay: P-gp ATPase activity (A549/DOX cells); type: biochemical; design: endogenous in cells; host or cells: HT29/DOX (A27) and A549/DOX (A28); settings: 1 µM, compared with A549
Description: as §4

T5 sequence (P08183 whole entry): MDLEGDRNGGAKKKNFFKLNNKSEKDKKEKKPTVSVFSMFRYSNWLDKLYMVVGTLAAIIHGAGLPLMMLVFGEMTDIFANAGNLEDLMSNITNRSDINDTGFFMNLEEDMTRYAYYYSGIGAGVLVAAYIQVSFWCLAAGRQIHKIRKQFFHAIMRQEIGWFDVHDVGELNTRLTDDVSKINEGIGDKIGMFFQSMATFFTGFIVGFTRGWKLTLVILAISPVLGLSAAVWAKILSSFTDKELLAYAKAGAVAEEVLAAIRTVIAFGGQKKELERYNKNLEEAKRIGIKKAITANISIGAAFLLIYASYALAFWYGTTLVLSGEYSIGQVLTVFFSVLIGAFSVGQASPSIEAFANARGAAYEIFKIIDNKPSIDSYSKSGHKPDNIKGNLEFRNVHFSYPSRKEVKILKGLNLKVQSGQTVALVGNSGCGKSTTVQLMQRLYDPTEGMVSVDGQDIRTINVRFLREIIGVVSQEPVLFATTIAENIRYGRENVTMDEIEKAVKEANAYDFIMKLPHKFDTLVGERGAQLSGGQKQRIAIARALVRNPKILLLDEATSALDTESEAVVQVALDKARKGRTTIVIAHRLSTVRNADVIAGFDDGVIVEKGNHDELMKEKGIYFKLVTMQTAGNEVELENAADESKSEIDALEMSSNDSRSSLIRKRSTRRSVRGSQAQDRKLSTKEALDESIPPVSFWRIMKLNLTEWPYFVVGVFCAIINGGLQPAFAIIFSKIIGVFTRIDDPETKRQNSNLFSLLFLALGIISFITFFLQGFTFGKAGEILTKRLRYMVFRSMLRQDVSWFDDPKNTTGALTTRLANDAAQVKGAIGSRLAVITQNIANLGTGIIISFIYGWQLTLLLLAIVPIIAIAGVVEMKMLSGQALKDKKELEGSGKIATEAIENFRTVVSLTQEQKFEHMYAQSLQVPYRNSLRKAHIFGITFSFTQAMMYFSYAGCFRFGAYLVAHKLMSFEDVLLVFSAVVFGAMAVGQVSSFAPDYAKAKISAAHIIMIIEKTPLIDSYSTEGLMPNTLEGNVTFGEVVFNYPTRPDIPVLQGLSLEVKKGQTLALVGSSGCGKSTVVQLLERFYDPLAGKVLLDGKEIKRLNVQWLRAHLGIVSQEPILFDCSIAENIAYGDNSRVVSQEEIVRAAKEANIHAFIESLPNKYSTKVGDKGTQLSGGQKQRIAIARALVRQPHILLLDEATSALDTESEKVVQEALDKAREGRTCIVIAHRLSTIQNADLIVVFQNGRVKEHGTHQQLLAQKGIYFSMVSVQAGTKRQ
T3 sequence (O43570 25-354): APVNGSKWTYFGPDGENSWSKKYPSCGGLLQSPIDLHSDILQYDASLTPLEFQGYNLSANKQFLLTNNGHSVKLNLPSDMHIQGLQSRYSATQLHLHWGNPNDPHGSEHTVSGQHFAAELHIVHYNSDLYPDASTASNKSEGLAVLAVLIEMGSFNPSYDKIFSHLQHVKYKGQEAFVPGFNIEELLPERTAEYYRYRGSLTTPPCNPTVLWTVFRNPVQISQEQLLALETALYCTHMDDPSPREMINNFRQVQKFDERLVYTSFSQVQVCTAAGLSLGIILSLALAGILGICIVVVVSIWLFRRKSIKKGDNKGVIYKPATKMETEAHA
T1 sequence (P00915 whole entry): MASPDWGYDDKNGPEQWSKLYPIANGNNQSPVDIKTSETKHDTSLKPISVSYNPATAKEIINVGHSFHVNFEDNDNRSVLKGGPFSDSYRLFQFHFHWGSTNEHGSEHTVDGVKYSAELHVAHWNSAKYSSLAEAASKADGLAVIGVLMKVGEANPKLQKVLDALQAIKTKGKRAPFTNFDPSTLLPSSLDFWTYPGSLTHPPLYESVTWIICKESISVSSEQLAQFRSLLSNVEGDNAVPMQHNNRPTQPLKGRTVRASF

Compound `COc1ccc(C(CCCN2CCN(CCCOc3ccc4oc(=O)ccc4c3)CC2)c2ccc(OC)cc2)cc1` [Compound 32, 6-(3-(4-(4,4-Bis(4-methoxyphenyl)butyl)piperazin-1-yl)propoxy)-2H-chromen-2-one] has a toxicity (A549 cells) of no less than 35%, a toxicity (HT29 cells) of no less than 35% and a Ki (hCA I) greater than 10000 nM. It also gave a Ki (hCA IX) of 89.6 nM, a Ki (hCA XII) of 71.5 nM and a Ki (hCA II) greater than 10000 nM. The P-gp catalytic activity (P-gp [1]) was “lowered the catalytic efficacy of P-gp in resistant cells to levels comparable to drug-sensitive HT29 and A549 cells”, the membrane fluidity (HT29/DOX cells [2]) was “increased membrane fluidity” and the membrane fluidity (A549/DOX cells [3]) was “increased membrane fluidity”. For the same compound, the “RF (Reversal Fold: IC50 of doxorubicin alone / in presence of modulator)” value (K562/DOX cells; compound at 1 µM) was 3.6, the “RF (Reversal Fold: IC50 of doxorubicin alone / in presence of modulator)” value (K562/DOX cells; compound at 3 µM) was 7.9 and the “increase of TBARS levels compared to the control” value (“increase of TBARS levels” below) (HT29/DOX cells [4]) was 2.6 times. For the same compound, the “increase of TBARS levels” value (A549/DOX cells [5]) was 4 times, the “increase of ROS levels compared to the control” value (shortened to “increase of ROS levels”) (HT29/DOX cells [6]) was 3–4 times and the “increase of ROS levels” value (A549/DOX cells [7]) was 7–8 times. The toxicity (HT29/DOX cells [8]) was no less than 35%, the “more cytotoxic in resistant cells than in parental sensitive cells” value (shortened to “more cytotoxic in resistant cells than”) (HT29/DOX cells [8]) was 15%-20% and the toxicity (A549/DOX cells [9]) was no less than 35%. The “more cytotoxic in resistant cells than” value (A549/DOX cells [9]) was 15%-20% and the P-gp catalytic activity (P-gp [10]) was “lowered the catalytic efficacy of P-gp in resistant cells to levels comparable to drug-sensitive HT29 and A549 cells”.
`COc1ccc(C(CCCN2CCN(CCCCOc3ccc4ccc(=O)oc4c3)CC2)c2ccc(OC)cc2)cc1` [Compound 27, 7-(4-(4-(4,4-Bis(4-methoxyphenyl)butyl)piperazin-1-yl)butoxy)-2H-chromen-2-one] showed a toxicity (A549 cells) of no less than 35%, a toxicity (HT29 cells) of no less than 35% and a Ki (hCA I) greater than 10000 nM. It also gave a Ki (hCA IX) of 145 nM, a Ki (hCA XII) of 92.1 nM and a Ki (hCA II) greater than 10000 nM. For the same compound, the P-gp catalytic activity (P-gp [1]) was “lowered the catalytic efficacy of P-gp in resistant cells to levels comparable to drug-sensitive HT29 and A549 cells”, the membrane fluidity (HT29/DOX cells [2]) was “increased membrane fluidity” and the membrane fluidity (A549/DOX cells [3]) was “increased membrane fluidity”. The “RF (Reversal Fold: IC50 of doxorubicin alone / in presence of modulator)” value (K562/DOX cells; compound at 1 µM) was 8.1, the “increase of TBARS levels” value (HT29/DOX cells [4]) was 2.6 times and the “increase of TBARS levels” value (A549/DOX cells [5]) was 4 times. The “increase of ROS levels” value (HT29/DOX cells [6]) was 3–4 times, the “increase of ROS levels” value (A549/DOX cells [7]) was 7–8 times and the toxicity (HT29/DOX cells [8]) was no less than 35%. For the same compound, the “more cytotoxic in resistant cells than” value (HT29/DOX cells [8]) was 15%-20%, the toxicity (A549/DOX cells [9]) was no less than 35% and the “more cytotoxic in resistant cells than” value (A549/DOX cells [9]) was 15%-20%. The P-gp catalytic activity (P-gp [10]) was “lowered the catalytic efficacy of P-gp in resistant cells to levels comparable to drug-sensitive HT29 and A549 cells”.
